The values that follow come from BindingDB's records for doi:10.1021/jm7012858 (Wyeth Research, 2008).

In one experiment the target is Phosphatidylinositol 3-kinase regulatory subunit alpha/4,5-bisphosphate 3-kinase catalytic subunit alpha isoform (Homo sapiens, UniProt P42336). The experiment is described as follows: PI3K Inhibition Assay.
Chain of Phosphatidylinositol 3-kinase regulatory subunit alpha/4,5-bisphosphate 3-kinase catalytic subunit alpha isoform (P27986 whole entry, canonical isoform): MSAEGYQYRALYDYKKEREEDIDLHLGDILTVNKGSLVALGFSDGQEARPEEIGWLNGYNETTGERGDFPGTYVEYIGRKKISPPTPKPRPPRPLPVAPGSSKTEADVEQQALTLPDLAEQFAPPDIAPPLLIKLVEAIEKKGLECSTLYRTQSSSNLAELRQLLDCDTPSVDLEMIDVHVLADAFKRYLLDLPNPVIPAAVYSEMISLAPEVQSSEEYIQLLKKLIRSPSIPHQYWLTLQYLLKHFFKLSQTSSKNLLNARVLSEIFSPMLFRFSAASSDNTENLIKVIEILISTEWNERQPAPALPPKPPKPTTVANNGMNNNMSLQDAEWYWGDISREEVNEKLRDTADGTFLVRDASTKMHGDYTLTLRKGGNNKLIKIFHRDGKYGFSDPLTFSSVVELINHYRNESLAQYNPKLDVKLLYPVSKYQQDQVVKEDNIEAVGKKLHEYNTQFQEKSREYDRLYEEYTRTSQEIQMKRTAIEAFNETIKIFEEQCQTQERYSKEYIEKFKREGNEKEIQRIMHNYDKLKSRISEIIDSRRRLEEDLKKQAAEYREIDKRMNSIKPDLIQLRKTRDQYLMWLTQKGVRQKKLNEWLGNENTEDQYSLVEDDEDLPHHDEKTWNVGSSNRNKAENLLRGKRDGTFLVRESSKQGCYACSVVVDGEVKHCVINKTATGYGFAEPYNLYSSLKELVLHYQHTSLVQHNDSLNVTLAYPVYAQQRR
Chain of Phosphatidylinositol 3-kinase regulatory subunit alpha/4,5-bisphosphate 3-kinase catalytic subunit alpha isoform (P42336 whole entry, canonical isoform): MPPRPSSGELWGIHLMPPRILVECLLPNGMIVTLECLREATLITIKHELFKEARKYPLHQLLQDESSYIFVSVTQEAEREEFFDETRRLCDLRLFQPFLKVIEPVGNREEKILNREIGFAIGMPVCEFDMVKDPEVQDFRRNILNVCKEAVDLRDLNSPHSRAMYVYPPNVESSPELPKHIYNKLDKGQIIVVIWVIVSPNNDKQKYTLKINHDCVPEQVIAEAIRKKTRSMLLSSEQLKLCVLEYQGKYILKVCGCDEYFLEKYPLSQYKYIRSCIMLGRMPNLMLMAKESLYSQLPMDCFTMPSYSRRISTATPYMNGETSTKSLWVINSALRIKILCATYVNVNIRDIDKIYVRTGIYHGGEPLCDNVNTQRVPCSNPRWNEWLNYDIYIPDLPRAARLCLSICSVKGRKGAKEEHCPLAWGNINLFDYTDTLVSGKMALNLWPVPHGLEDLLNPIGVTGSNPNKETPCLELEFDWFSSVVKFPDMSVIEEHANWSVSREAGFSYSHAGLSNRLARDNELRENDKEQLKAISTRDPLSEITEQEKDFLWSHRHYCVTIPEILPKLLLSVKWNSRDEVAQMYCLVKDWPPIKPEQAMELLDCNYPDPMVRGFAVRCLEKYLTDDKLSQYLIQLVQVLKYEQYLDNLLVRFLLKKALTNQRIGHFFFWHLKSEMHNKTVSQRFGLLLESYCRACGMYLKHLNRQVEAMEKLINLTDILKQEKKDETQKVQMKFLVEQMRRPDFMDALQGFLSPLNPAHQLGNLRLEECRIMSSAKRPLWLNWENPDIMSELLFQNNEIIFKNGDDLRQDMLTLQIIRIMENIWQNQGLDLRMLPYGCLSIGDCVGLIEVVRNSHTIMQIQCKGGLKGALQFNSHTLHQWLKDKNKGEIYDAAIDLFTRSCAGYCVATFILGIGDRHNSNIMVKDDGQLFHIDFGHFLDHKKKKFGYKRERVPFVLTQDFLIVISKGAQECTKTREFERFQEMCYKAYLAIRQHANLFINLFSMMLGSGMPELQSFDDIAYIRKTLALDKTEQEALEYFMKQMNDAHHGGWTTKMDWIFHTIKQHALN
Conditions: not given
The procedure: Inhibition of PI3K enzyme activity is measured in a microtiter plate-based fluorescence polarization (FP) assay.
`COC[C@H]1OC(=O)C(=CN2CCC(=O)CC2)C2C(=O)C(=O)C3=C([C@H](OC(C)=O)C[C@@]4(C)C3CC[C@@H]4O)[C@]21C` (stereo partly drawn) [(2R,3S,6E,14S,15S,17R)-8,14-dihydroxy-3-(methoxymethyl)-2,15-dimethyl-5,9-dioxo-6-[(4-oxopiperidin-1-yl)methylidene]-4-oxatetracyclo[8.7.0.0^{2,7}.0^{11,15}]heptadeca-1(10),7-dien-17-yl acetate] had an IC50 of 60 nM.
Still for that read-out and setting: under `COC[C@H]1OC(=O)C(=CN2CCN(c3ccccc3)CC2)C2C(=O)C(=O)C3=C([C@H](OC(C)=O)C[C@@]4(C)C3CC[C@@H]4O)[C@]21C` (stereo partly drawn) [(2R,3S,6E,14S,15S,17R)-8,14-dihydroxy-3-(methoxymethyl)-2,15-dimethyl-5,9-dioxo-6-[(4-phenylpiperazin-1-yl)methylidene]-4-oxatetracyclo[8.7.0.0^{2,7}.0^{11,15}]heptadeca-1(10),7-dien-17-yl acetate] stands 56 nM.
Still for that read-out and setting: under `COC[C@H]1OC(=O)C(=CN2CCC(c3ccccc3)CC2)C2C(=O)C(=O)C3=C([C@H](OC(C)=O)C[C@@]4(C)C3CC[C@@H]4O)[C@]21C` (stereo partly drawn) [(2R,3S,6E,14S,15S,17R)-8,14-dihydroxy-3-(methoxymethyl)-2,15-dimethyl-5,9-dioxo-6-[(4-phenylpiperidin-1-yl)methylidene]-4-oxatetracyclo[8.7.0.0^{2,7}.0^{11,15}]heptadeca-1(10),7-dien-17-yl acetate] stands 172 nM; under `COC[C@H]1OC(=O)C(=CN2CCC(N3CCCCC3)CC2)C2C(=O)C(=O)C3=C([C@H](OC(C)=O)C[C@@]4(C)C3CC[C@@H]4O)[C@]21C` (stereo partly drawn) [(2R,3S,6E,14S,15S,17R)-8,14-dihydroxy-3-(methoxymethyl)-2,15-dimethyl-5,9-dioxo-6-{[4-(piperidin-1-yl)piperidin-1-yl]methylidene}-4-oxatetracyclo[8.7.0.0^{2,7}.0^{11,15}]heptadeca-1(10),7-dien-17-yl acetate], 63 nM.
Same read-out and setting: under `COC[C@H]1OC(=O)C(=CN2CCOCC2)C2C(=O)C(=O)C3=C([C@H](OC(C)=O)C[C@@]4(C)C3CC[C@@H]4O)[C@]21C` (stereo partly drawn) [(2R,3S,6E,14S,15S,17R)-8,14-dihydroxy-3-(methoxymethyl)-2,15-dimethyl-6-(morpholin-4-ylmethylidene)-5,9-dioxo-4-oxatetracyclo[8.7.0.0^{2,7}.0^{11,15}]heptadeca-1(10),7-dien-17-yl acetate] stands 37 nM; under `COC[C@H]1OC(=O)C(=CN2CCN(CCN3CCOCC3)CC2)C2C(=O)C(=O)C3=C([C@H](OC(C)=O)C[C@@]4(C)C3CC[C@@H]4O)[C@]21C` (stereo partly drawn) [(2R,3S,6E,14S,15S,17R)-8,14-dihydroxy-3-(methoxymethyl)-2,15-dimethyl-6-({4-[2-(morpholin-4-yl)ethyl]piperazin-1-yl}methylidene)-5,9-dioxo-4-oxatetracyclo[8.7.0.0^{2,7}.0^{11,15}]heptadeca-1(10),7-dien-17-yl acetate], 78 nM.
As for `COC[C@H]1OC(=O)C(=CN2CCN(CCCN3CCOCC3)CC2)C2C(=O)C(=O)C3=C([C@H](OC(C)=O)C[C@@]4(C)C3CC[C@@H]4O)[C@]21C` (stereo partly drawn) [(2R,3S,6E,14S,15S,17R)-8,14-dihydroxy-3-(methoxymethyl)-2,15-dimethyl-6-({4-[3-(morpholin-4-yl)propyl]piperazin-1-yl}methylidene)-5,9-dioxo-4-oxatetracyclo[8.7.0.0^{2,7}.0^{11,15}]heptadeca-1(10),7-dien-17-yl acetate], the IC50 was found to be 45 nM.
On the same count and under the same terms, under `COC[C@H]1OC(=O)C(=CN(C)CCCN2CCN(C)CC2)C2C(=O)C(=O)C3=C([C@H](OC(C)=O)C[C@@]4(C)C3CC[C@@H]4O)[C@]21C` (stereo partly drawn) [(2R,3S,6E,14S,15S,17R)-8,14-dihydroxy-3-(methoxymethyl)-2,15-dimethyl-6-({methyl[3-(4-methylpiperazin-1-yl)propyl]amino}methylidene)-5,9-dioxo-4-oxatetracyclo[8.7.0.0^{2,7}.0^{11,15}]heptadeca-1(10),7-dien-17-yl acetate] stands 10 nM.
For `COC[C@H]1OC(=O)C(=CN(C)CCCN2CCOCC2)C2C(=O)C(=O)C3=C([C@H](OC(C)=O)C[C@@]4(C)C3CC[C@@H]4O)[C@]21C` (stereo partly drawn) [(2R,3S,6E,14S,15S,17R)-8,14-dihydroxy-3-(methoxymethyl)-2,15-dimethyl-6-({methyl[3-(morpholin-4-yl)propyl]amino}methylidene)-5,9-dioxo-4-oxatetracyclo[8.7.0.0^{2,7}.0^{11,15}]heptadeca-1(10),7-dien-17-yl acetate], the IC50 was determined as 24 nM.
Molecule `COC[C@H]1OC(=O)C(=CN2CCN(C)CC2)C2C(=O)C(=O)C3=C([C@H](OC(C)=O)C[C@@]4(C)C3CC[C@@H]4O)[C@]21C` (stereo partly drawn) [(2R,3S,6E,14S,15S,17R)-8,14-dihydroxy-3-(methoxymethyl)-2,15-dimethyl-6-[(4-methylpiperazin-1-yl)methylidene]-5,9-dioxo-4-oxatetracyclo[8.7.0.0^{2,7}.0^{11,15}]heptadeca-1(10),7-dien-17-yl acetate] registered an IC50 of 90 nM.
The same measure, in the same setting: under `COC[C@H]1OC(=O)C(=CN2CCN(C3CCN(C)CC3)CC2)C2C(=O)C(=O)C3=C([C@H](OC(C)=O)C[C@@]4(C)C3CC[C@@H]4O)[C@]21C` (stereo partly drawn) [(2R,3S,6E,14S,15S,17R)-8,14-dihydroxy-3-(methoxymethyl)-2,15-dimethyl-6-{[4-(1-methylpiperidin-4-yl)piperazin-1-yl]methylidene}-5,9-dioxo-4-oxatetracyclo[8.7.0.0^{2,7}.0^{11,15}]heptadeca-1(10),7-dien-17-yl acetate] stands 91 nM.
`COC[C@H]1OC(=O)C(=CN(C)N2CCC(C)C2)C2C(=O)C(=O)C3=C([C@H](OC(C)=O)C[C@@]4(C)C3CC[C@@H]4O)[C@]21C` (stereo partly drawn) [(2R,3S,6E,14S,15S,17R)-8,14-dihydroxy-3-(methoxymethyl)-2,15-dimethyl-6-{[methyl(3-methylpyrrolidin-1-yl)amino]methylidene}-5,9-dioxo-4-oxatetracyclo[8.7.0.0^{2,7}.0^{11,15}]heptadeca-1(10),7-dien-17-yl acetate] returned an IC50 of 127 nM.
On the same count and under the same terms, under `COC[C@H]1OC(=O)C(=CN(C)CCCN2CCN(c3ccc(OC)cc3)CC2)C2C(=O)C(=O)C3=C([C@H](OC(C)=O)C[C@@]4(C)C3CC[C@@H]4O)[C@]21C` (stereo partly drawn) [(2R,3S,6E,14S,15S,17R)-8,14-dihydroxy-3-(methoxymethyl)-6-[({3-[4-(4-methoxyphenyl)piperazin-1-yl]propyl}(methyl)amino)methylidene]-2,15-dimethyl-5,9-dioxo-4-oxatetracyclo[8.7.0.0^{2,7}.0^{11,15}]heptadeca-1(10),7-dien-17-yl acetate] stands 15 nM.

Staying with this experiment, now noted: pH 7.5; 22 °C.
`COC[C@H]1OC(=O)C(=CN(C)CCCN(C)C)C2C(=O)C(=O)C3=C([C@H](O)C[C@@]4(C)C3CC[C@@H]4O)[C@]21C` (stereo partly drawn) [(2R,3S,6Z,14S,15S,17R)-6-({[3-(dimethylamino)propyl](methyl)amino}methylidene)-8,14,17-trihydroxy-3-(methoxymethyl)-2,15-dimethyl-4-oxatetracyclo[8.7.0.0^{2,7}.0^{11,15}]heptadeca-1(10),7-diene-5,9-dione]: inhibition was half-maximal at 638 nM (IC50). In other words, the sub-micromolar range.
On to `COC[C@H]1OC(=O)C(=CNCCCN(C)C)C2C(=O)C(=O)C3=C([C@H](OC(C)=O)C[C@@]4(C)C3CC[C@@H]4O)[C@]21C` (stereo partly drawn) [(2R,3S,6Z,14S,15S,17R)-6-({[3-(dimethylamino)propyl]amino}methylidene)-8,14-dihydroxy-3-(methoxymethyl)-2,15-dimethyl-5,9-dioxo-4-oxatetracyclo[8.7.0.0^{2,7}.0^{11,15}]heptadeca-1(10),7-dien-17-yl acetate], for which the IC50 was greater than 10000 nM.
`COC[C@H]1OC(=O)C(=CN(CCN(C)C)Cc2ccccc2)C2C(=O)C(=O)C3=C([C@H](OC(C)=O)C[C@@]4(C)C3CC[C@@H]4O)[C@]21C` (stereo partly drawn) [(2R,3S,6Z,14S,15S,17R)-6-({benzyl[2-(dimethylamino)ethyl]amino}methylidene)-8,14-dihydroxy-3-(methoxymethyl)-2,15-dimethyl-5,9-dioxo-4-oxatetracyclo[8.7.0.0^{2,7}.0^{11,15}]heptadeca-1(10),7-dien-17-yl acetate] registered an IC50 of 66 nM.
Still for that read-out and setting: under `COC[C@H]1OC(=O)C(=CN(CCN(C)C)C(C)(C)C)C2C(=O)C(=O)C3=C([C@H](OC(C)=O)C[C@@]4(C)C3CC[C@@H]4O)[C@]21C` (stereo partly drawn) [(2R,3S,6Z,14S,15S,17R)-6-({tert-butyl[2-(dimethylamino)ethyl]amino}methylidene)-8,14-dihydroxy-3-(methoxymethyl)-2,15-dimethyl-5,9-dioxo-4-oxatetracyclo[8.7.0.0^{2,7}.0^{11,15}]heptadeca-1(10),7-dien-17-yl acetate] stands 9.6 nM.
The same measure, in the same setting: under `CCN(C=C1C(=O)O[C@H](COC)[C@]2(C)C3=C(C(=O)C(=O)C12)C1CC[C@H](O)[C@@]1(C)C[C@H]3O)CC` (stereo partly drawn) [(2R,3S,6Z,14S,15S,17R)-6-[(diethylamino)methylidene]-8,14,17-trihydroxy-3-(methoxymethyl)-2,15-dimethyl-4-oxatetracyclo[8.7.0.0^{2,7}.0^{11,15}]heptadeca-1(10),7-diene-5,9-dione] stands 7850 nM; under `CCN(C=C1C(=O)O[C@H](COC)[C@]2(C)C3=C(C(=O)C(=O)C12)C1CC[C@H](O)[C@@]1(C)C[C@H]3OC(C)=O)CC` (stereo partly drawn) [(2R,3S,6Z,14S,15S,17R)-6-[(diethylamino)methylidene]-8,14-dihydroxy-3-(methoxymethyl)-2,15-dimethyl-5,9-dioxo-4-oxatetracyclo[8.7.0.0^{2,7}.0^{11,15}]heptadeca-1(10),7-dien-17-yl acetate], 382 nM; under `CCNC=C1C(=O)O[C@H](COC)[C@]2(C)C3=C(C(=O)C(=O)C12)C1CC[C@H](O)[C@@]1(C)C[C@H]3OC(C)=O` (stereo partly drawn) [(2R,3S,6Z,14S,15S,17R)-6-[(ethylamino)methylidene]-8,14-dihydroxy-3-(methoxymethyl)-2,15-dimethyl-5,9-dioxo-4-oxatetracyclo[8.7.0.0^{2,7}.0^{11,15}]heptadeca-1(10),7-dien-17-yl acetate], greater than 10000 nM.
